The target in test [1] is Cdk14/CycY (Homo sapiens (Human), UniProt O94921). In words: Lanthascreen Eu kinase binding assay for Cdk14/CycY with 30 minute pre-incubation. As to conditions: 30 minute pre-incubation of kinase with compound; read-out: IC50 CDK14 binding by Lanthascreen. The protocol: Lanthascreen Eu kinase binding assays were conducted for Cdk14/CycY largely as performed in the commercial assay service by Life Technologies, but included a 30 minute pre-incubation step of the kinase with candidate compounds to facilitate covalent bond formation.

In test [2] the test system is HCT116 cells. As to the kind of experiment: Antiproliferation assay, Cell Titer Glo, 72 hours. Type of test: cell-based. In short, it runs like this:
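Luminescent CellTiter-Glo read-out after 72 h compound exposure (four-fold dilutions, 37 °C, 5% CO2) of HCT116 cells plated at 750 cells/well in McCoy's 5A + 10% FBS. Biological quadruplicates; IC50 from non-linear curve fitting.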
For orientation: ATP-based viability assays read luminescence as a measure of living cells.

For test [3], the target named is CDK16/CycY (Homo sapiens (Human), UniProt Q00536). In words: Lanthascreen Eu kinase binding assay for CDK16/CycY. The protocol: Lanthascreen Eu kinase binding assays were conducted for CDK16/CycY at Life Technologies.
For test [4], the target named is CDK2/CycA (Homo sapiens (Human), UniProt P24941). As to the kind of experiment: Z'LYTE kinase assay for CDK2/CycA at Km ATP. Type of test: biochemical.
[5] abbreviates: read-out: IC50 CDK16 Lanthascreen binding.
[6] abbreviates: read-out: IC50 CDK2 Z′LYTE kinase assay.

The structures appear in SMILES notation. Like-named read-outs stand apart in the source and are kept apart here. Bounds are passed on as bounds.

The term IC50 denotes the concentration at which inhibition is half-maximal.

Sequence of Cdk14/CycY (O94921 whole entry): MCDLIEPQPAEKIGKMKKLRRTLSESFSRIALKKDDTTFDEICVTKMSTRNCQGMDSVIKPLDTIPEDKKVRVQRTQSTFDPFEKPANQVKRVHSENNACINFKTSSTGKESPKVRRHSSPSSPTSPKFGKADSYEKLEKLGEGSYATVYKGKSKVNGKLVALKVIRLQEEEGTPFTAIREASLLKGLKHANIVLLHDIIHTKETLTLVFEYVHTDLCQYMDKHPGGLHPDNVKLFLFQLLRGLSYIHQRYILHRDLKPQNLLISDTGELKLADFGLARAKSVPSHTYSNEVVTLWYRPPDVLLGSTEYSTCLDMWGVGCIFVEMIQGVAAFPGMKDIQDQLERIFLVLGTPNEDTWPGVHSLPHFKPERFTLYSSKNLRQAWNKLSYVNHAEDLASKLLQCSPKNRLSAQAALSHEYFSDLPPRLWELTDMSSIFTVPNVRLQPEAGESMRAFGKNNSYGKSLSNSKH
Sequence of Cdk14/CycY (Q8ND76 whole entry partner): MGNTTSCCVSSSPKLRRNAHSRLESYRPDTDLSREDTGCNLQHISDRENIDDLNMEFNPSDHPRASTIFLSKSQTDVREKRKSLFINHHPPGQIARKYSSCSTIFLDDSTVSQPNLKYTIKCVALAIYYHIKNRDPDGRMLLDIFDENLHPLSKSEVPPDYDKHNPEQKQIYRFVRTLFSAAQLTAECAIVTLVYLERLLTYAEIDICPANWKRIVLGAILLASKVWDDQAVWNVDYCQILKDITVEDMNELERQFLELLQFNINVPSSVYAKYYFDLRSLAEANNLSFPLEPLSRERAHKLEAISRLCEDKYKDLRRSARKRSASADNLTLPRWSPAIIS
Sequence of CDK16/CycY (Q00536 whole entry): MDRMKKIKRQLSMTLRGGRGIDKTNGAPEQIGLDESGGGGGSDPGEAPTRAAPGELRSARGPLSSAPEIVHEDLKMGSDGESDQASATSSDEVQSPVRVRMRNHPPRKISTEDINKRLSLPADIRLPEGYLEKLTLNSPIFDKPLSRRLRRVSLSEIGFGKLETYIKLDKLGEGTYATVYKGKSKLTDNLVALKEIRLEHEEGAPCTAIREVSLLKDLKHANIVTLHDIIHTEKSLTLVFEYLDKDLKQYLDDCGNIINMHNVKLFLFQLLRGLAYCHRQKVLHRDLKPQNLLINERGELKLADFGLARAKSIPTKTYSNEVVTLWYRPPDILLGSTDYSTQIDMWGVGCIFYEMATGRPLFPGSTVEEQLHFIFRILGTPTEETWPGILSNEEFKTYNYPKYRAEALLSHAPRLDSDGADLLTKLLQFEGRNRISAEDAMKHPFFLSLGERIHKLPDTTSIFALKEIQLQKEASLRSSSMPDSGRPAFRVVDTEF
Sequence of CDK16/CycY (Q8ND76 whole entry partner): as the sequence (Q8ND76 whole entry partner) above

Consider `CN(C)C/C=C/C(=O)Nc1cccc(S(=O)(=O)N2CCC(N(C)C(=O)c3n[nH]cc3NC(=O)c3c(Cl)cccc3Cl)CC2)c1` [FMF-04-086-2, (E)-4-(2,6-dichlorobenzamido)-N-(1-((3-(4-(dimethylamino)but-2-enamido)phenyl)sulfonyl)piperidin-4-yl)-N-methyl-1H-pyrazole-3-carboxamide], for which the concentration for half-maximal inhibition (IC50) in test [1] was over 1000 nM; in test [2] (Homo sapiens, HCT-116, 72 h), over 10000 nM; in test [3] (setting [5]), 894 nM; in test [4] (setting [6]) it was 664 nM.

In the case of `CN(C)C/C=C/C(=O)Nc1cccc(S(=O)(=O)N2CCC(NC(=O)c3nscc3NC(=O)c3c(Cl)cccc3Cl)CC2)c1` [FMF-04-089-2, (E)-4-(2,6-dichlorobenzamido)-N-(1-((3-(4-(dimethylamino)but-2-enamido)phenyl)sulfonyl)piperidin-4-yl)isothiazole-3-carboxamide], the IC50 in test [1] was over 1000 nM; in test [2] (Homo sapiens, HCT-116, 72 h), 3040 nM; in test [3] (setting [5]), 404 nM; in test [4] (setting [6]), 439 nM.

As to `COc1cccc(Cl)c1C(=O)Nc1c[nH]nc1C(=O)NC1CCN(S(=O)(=O)c2cccc(NC(=O)/C=C/CN(C)C)c2)CC1` [FMF-04-107-2, (E)-4-(2-chloro-6-methoxybenzamido)-N-(1-((3-(4-(dimethylamino)but-2-enamido)phenyl)sulfonyl)piperidin-4-yl)-1H-pyrazole-3-carboxamide], the IC50 in test [2] is 524 nM; in test [2] (Homo sapiens, HCT-116, 72 h), 524 nM; in test [3] (read-out: CDK16 IC50), 2.3 nM; in test [3] (setting [5]), 2.3 nM; in test [4] (read-out: CDK2 IC50) it was 4.5 nM; in test [4] (setting [6]), 4.5 nM.

Regarding `CN(C)C/C=C/C(=O)Nc1cccc(S(=O)(=O)N2CCC(NC(=O)c3c(NC(=O)c4c(Cl)cccc4Cl)cnn3C)CC2)c1` [FMF-04-121-1, (E)-4-(2,6-dichlorobenzamido)-N-(1-((3-(4-(dimethylamino)but-2-enamido)phenyl)sulfonyl)piperidin-4-yl)-1-methyl-1H-pyrazole-5-carboxamide], the IC50 in test [1] was 486 nM; in test [2] (Homo sapiens, HCT-116, 72 h) it was 2860 nM; in test [3] (setting [5]) it was 6700 nM; in test [4] (setting [6]), over 10000 nM.

On to `CCC(=O)Nc1cccc(CN2CCC(NC(=O)c3n[nH]cc3NC(=O)c3c(Cl)cccc3Cl)CC2)c1` [FMF-04-172-2, 4-(2,6-dichlorobenzamido)-N-(1-(3-propionamidobenzyl)piperidin-4-yl)-1H-pyrazole-3-carboxamide], for which the IC50 in test [2] was 173 nM; in test [2] (Homo sapiens, HCT-116, 72 h), 123 nM; in test [3] (setting [5]), 29.4 nM; in test [4] (setting [6]), 19.6 nM.

With `Cc1[nH]nc(C(=O)NC2CCN(S(=O)(=O)c3cccc(NC(=O)/C=C/CN(C)C)c3)CC2)c1NC(=O)c1c(Cl)cccc1Cl` [FMF-04-181-2, (E)-4-(2,6-dichlorobenzamido)-N-(1-((3-(4-(dimethylamino)but-2-enamido)phenyl)sulfonyl)piperidin-4-yl)-5-methyl-1H-pyrazole-3-carboxamide], the IC50 was over 1000 nM in test [1]; over 10000 nM in test [2] (Homo sapiens, HCT-116, 72 h); 124 nM in test [3] (setting [5]); 125 nM in test [4] (setting [6]).

On to `CN(C)C/C=C/C(=O)Nc1cccc(S(=O)(=O)N2CCC(NC(=O)c3n[nH]c(-c4ccccc4)c3NC(=O)c3c(Cl)cccc3Cl)CC2)c1` [FMF-04-197-1, (E)-4-(2,6-dichlorobenzamido)-N-(1-((3-(4-(dimethylamino)but-2-enamido)phenyl)sulfonyl)piperidin-4-yl)-5-phenyl-1H-pyrazole-3-carboxamide], for which the half-inhibitory concentration (IC50) in test [1] is 28 nM; in test [2] (Homo sapiens, HCT-116, 72 h), over 10000 nM; in test [3] (setting [5]), 5900 nM; in test [4] (setting [6]), 5900 nM.

Take `CC(C)c1[nH]nc(C(=O)NC2CCN(S(=O)(=O)c3cccc(NC(=O)/C=C/CN(C)C)c3)CC2)c1NC(=O)c1c(Cl)cccc1Cl` [FMF-04-199-1, (E)-4-(2,6-dichlorobenzamido)-N-(1-((3-(4-(dimethylamino)but-2-enamido)phenyl)sulfonyl)piperidin-4-yl)-5-isopropyl-1H-pyrazole-3-carboxamide]: the IC50 is 1000 nM in test [1]; over 10000 nM in test [2] (Homo sapiens, HCT-116, 72 h); 8900 nM in test [3] (setting [5]); over 10000 nM in test [4] (setting [6]).

For the molecule `CN(C)C/C=C/C(=O)Nc1cccc(CN2CCC(NC(=O)c3n[nH]cc3NC(=O)c3c(F)cc(F)cc3F)CC2)c1` [FMF-04-200-2, (E)-N-(1-(3-(4-(dimethylamino)but-2-enamido)benzyl)piperidin-4-yl)-4-(2,4,6-trifluorobenzamido)-1H-pyrazole-3-carboxamide], the 50% inhibitory concentration (IC50) in test [1] was 17 nM; in test [2] (Homo sapiens, HCT-116, 72 h), 293 nM; in test [3] (setting [5]), 110 nM; in test [4] (setting [6]), 508 nM.

Consider `CN(C)C/C=C/C(=O)Nc1cccc(S(=O)(=O)N2CCC(NC(=O)c3n[nH]cc3NC(=O)c3ccccc3)CC2)c1` [FMF-05-027-2, (E)-4-benzamido-N-(1-((3-(4-(dimethylamino)but-2-enamido)phenyl)sulfonyl)piperidin-4-yl)-1H-pyrazole-3-carboxamide], for which the half-inhibitory concentration (IC50) in test [1] came out at 3 nM; in test [2] (Homo sapiens, HCT-116, 72 h) it was 440 nM; in test [3] (setting [5]), 9.8 nM; in test [4] (setting [6]), 2.8 nM.

In the case of `COc1cccc(Cl)c1C(=O)Nc1c[nH]nc1C(=O)NC1CCN(Cc2cccc(NC(=O)/C=C/CN(C)C)c2)CC1` [FMF-05-032-1, (E)-4-(2-chloro-6-methoxybenzamido)-N-(1-(3-(4-(dimethylamino)but-2-enamido)benzyl)piperidin-4-yl)-1H-pyrazole-3-carboxamide], the IC50 in test [2] (Homo sapiens, HCT-116, 72 h) was 115 nM; in test [3] (read-out: CDK16 IC50), 8.2 nM; in test [3] (setting [5]) it was 8.2 nM; in test [4] (read-out: CDK2 IC50), 36 nM; in test [4] (setting [6]), 36 nM.

As for `CCC(=O)Nc1cccc(S(=O)(=O)N2CCC(NC(=O)c3n[nH]cc3NC(=O)c3c(Cl)cccc3OC)CC2)c1` [FMF-05-033-1, 4-(2-chloro-6-methoxybenzamido)-N-(1-((3-propionamidophenyl)sulfonyl)piperidin-4-yl)-1H-pyrazole-3-carboxamide], the IC50 is 172 nM in test [2] (Homo sapiens, HCT-116, 72 h); 3.4 nM in test [3] (setting [5]); 3 nM in test [4] (setting [6]).

Consider `C=CC(=O)Nc1ccc(CNC(=O)c2n[nH]cc2NC(=O)c2c(Cl)cccc2Cl)cc1` [FMF-05-064-1, N-(4-acrylamidobenzyl)-4-(2,6-dichlorobenzamido)-1H-pyrazole-3-carboxamide], for which the half-maximal inhibitory concentration (IC50) was 1700 nM in test [1]; 117 nM in test [2] (Homo sapiens, HCT-116, 72 h); 478 nM in test [3] (setting [5]); 15 nM in test [4] (setting [6]).

As for `CN(C)C/C=C/C(=O)Nc1ccc(N2CCC(NC(=O)c3n[nH]cc3NC(=O)c3c(Cl)cccc3Cl)CC2)cc1` [FMF-05-073-2, (E)-4-(2,6-dichlorobenzamido)-N-(1-(4-(4-(dimethylamino)but-2-enamido)phenyl)piperidin-4-yl)-1H-pyrazole-3-carboxamide], the IC50 in test [1] came out at 45 nM; in test [2] (Homo sapiens, HCT-116, 72 h), 541 nM; in test [3] (setting [5]), 27.7 nM; in test [4] (setting [6]) it was 17 nM.

In the case of `CN(C)C/C=C/C(=O)Nc1cccc(S(=O)(=O)N2CCC(NC(=O)c3n[nH]cc3NC(=O)C3CCC(F)(F)CC3)CC2)c1` [FMF-05-116-1, (E)-4-(4,4-difluorocyclohexane-1-carboxamido)-N-(1-((3-(4-(dimethylamino)but-2-enamido)phenyl)sulfonyl)piperidin-4-yl)-1H-pyrazole-3-carboxamide], the half-maximal inhibitory concentration (IC50) in test [2] (Homo sapiens, HCT-116, 72 h) was 8200 nM; in test [3] (setting [5]), 140 nM; in test [4] (setting [6]) it was 51.5 nM.

The values are drawn from patent US12187701B2, “Taire family kinase inhibitors and uses thereof” (Dana-Farber Cancer Institute, Inc., priority 2018, dated 2025).
